Data: ChEMBL document CHEMBL4177650, “Synthesis and biological evolution of hydrazones derived from 4-(trifluoromethyl)benzohydrazide” (Bioorg Med Chem Lett, 2017)
pIC50: −log10 of the molar value. Calls of active or inactive are those of the source.

Columns and labels:
Enterococcus faecalis [1] = assay: Antibacterial activity against gram-positive Enterococcus faecalis J 14365/08 after 24 hrs by microdilution broth method; format: functional; settings: J 14365/08, 24 h
Escherichia coli [2] = assay: Antibacterial activity against gram-negative Escherichia coli CCM 4517 after 48 hrs by microdilution broth method; format: functional; settings: CCM 4517, 48 h
Mycobacterium kansasii [3] = assay: Antimycobacterial activity against Mycobacterium kansasii 6509/80 after 14 days by micromethod; format: functional; settings: 6509/80, 336 h
Klebsiella pneumoniae [4] = assay: Antibacterial activity against extended spectrum beta-lactamase-positive Klebsiella pneumoniae J 14368/08 after 24 to 48 hrs by microdilution broth method; format: functional, organism-based
Staphylococcus aureus [5] = assay: Antibacterial activity against gram-positive Staphylococcus aureus CCM 4516/08 after 24 hrs by microdilution broth method; format: functional; settings: CCM 4516/08, 24 h
Mycobacterium kansasii [6] = assay: Antimycobacterial activity against Mycobacterium kansasii 6509/96 after 7 days by micromethod; format: functional; settings: 6509/96, 168 h
Klebsiella pneumoniae [7] = assay: Antibacterial activity against gram-negative Klebsiella pneumoniae D 11750/08 after 24 to 48 hrs by microdilution broth method; format: functional, organism-based
[8] = tested on: Mycobacterium tuberculosis; assay: Antimycobacterial activity against Mycobacterium tuberculosis H37Rv 331/88 after 21 days by micromethod; format: functional; settings: H37Rv 331/88, 504 h
[9] = Selectivity index, ratio of IC50 for human HepG2 cells to MIC for gram-positive Staphylococcus aureus CCM 4516/08; format: toxicity; settings: read-out: Selectivity Index
Mycobacterium kansasii [10] = assay: Antimycobacterial activity against Mycobacterium kansasii 6509/80 after 21 days by micromethod; format: functional; settings: 6509/80, 504 h
MONO-MAC-6 [11] = assay: Cytostatic activity against human MONO-MAC-6 cells incubated overnight followed by compound wash measured after 72 hrs by MTT assay; format: ADME, cell-based; settings: MONO-MAC-6, 72 h
Pichia kudriavzevii [12] = assay: Antifungal activity against Candida krusei E28 after 24 hrs by microdilution broth method; format: functional; settings: E28, 24 h
Mycobacterium kansasii [13] = assay: Antimycobacterial activity against Mycobacterium kansasii 6509/96 after 21 days by micromethod; format: functional; settings: 6509/96, 504 h
Candida tropicalis [14] = assay: Antifungal activity against Candida tropicalis 156 after 24 hrs by microdilution broth method; format: functional; settings: Candida tropicalis, 156, 24 h
[15] = tested on: Trichophyton mentagrophytes; assay: Antifungal activity against Trichophyton mentagrophytes 445 after 120 hrs by microdilution broth method; format: functional; settings: Trichophyton mentagrophytes, 445, 120 h
[16] = Cytotoxicity against mouse bone marrow macrophages after overnight incubation by MTT assay; settings: BMDM
[17] = Selectivity index, ratio of IC50 for human HepG2 cells to MIC for Candida glabrata 20/I; format: toxicity; settings: read-out: Selectivity Index
Pseudomonas aeruginosa = assay: Antibacterial activity against gram-negative Pseudomonas aeruginosa CCM 1961 after 48 hrs by microdilution broth method; format: functional, organism-based
Nakaseomyces glabratus [18] = assay: Antifungal activity against Candida glabrata 20/I after 48 hrs by microdilution broth method; format: functional
Mycobacterium avium [19] = assay: Antimycobacterial activity against Mycobacterium avium 330/88 after 14 days by micromethod; format: functional; settings: 330/88, 336 h
[20] = tested on: Mycobacterium tuberculosis; assay: Antimycobacterial activity against Mycobacterium tuberculosis H37Rv 331/88 after 14 days by micromethod; format: functional; settings: H37Rv 331/88, 336 h
Staphylococcus aureus [21] = assay: Antibacterial activity against gram-positive Staphylococcus aureus CCM 4516/08 after 48 hrs by microdilution broth method; format: functional; settings: CCM 4516/08, 48 h
[22] = Selectivity index, ratio of IC50 for human HepG2 cells to MIC for Trichophyton mentagrophytes 445; format: toxicity; settings: read-out: Selectivity Index
[23] = Selectivity index, ratio of IC50 for human HepG2 cells to MIC for Mycobacterium tuberculosis H37Rv 331/88; format: toxicity; settings: read-out: Selectivity Index
[24] = tested on: Staphylococcus epidermidis; assay: Antibacterial activity against gram-positive Staphylococcus epidermidis H 6966/08 after 24 hrs by microdilution broth method; format: functional; settings: H 6966/08, 24 h
MONO-MAC-6 [25] = assay: Cytotoxicity against human MONO-MAC-6 cells after overnight incubation by MTT assay; format: functional, cell-based
Staphylococcus aureus [26] = assay: Antibacterial activity against gram-positive methicillin-resistant Staphylococcus aureus H 5996/08 after 48 hrs by microdilution broth method; format: functional; settings: H 5996/08, 48 h
[27] = tested on: Staphylococcus epidermidis; assay: Antibacterial activity against gram-positive Staphylococcus epidermidis H 6966/08 after 48 hrs by microdilution broth method; format: functional; settings: H 6966/08, 48 h
HepG2 [28] = assay: Cytotoxicity against human HepG2 cells after overnight incubation by MTT assay; format: cell-based
Aspergillus fumigatus = assay: Antifungal activity against Aspergillus fumigatus 231 after 24 to 48 hrs by microdilution broth method; format: functional, organism-based
Mycobacterium kansasii [29] = assay: Antimycobacterial activity against Mycobacterium kansasii 6509/80 after 7 days by micromethod; format: functional; settings: 6509/80, 168 h
Trichosporon asahii = assay: Antifungal activity against Trichosporon asahii 1188 after 24 to 48 hrs by microdilution broth method; format: functional, organism-based
Staphylococcus aureus [30] = assay: Antibacterial activity against gram-positive methicillin-resistant Staphylococcus aureus H 5996/08 after 24 hrs by microdilution broth method; format: functional; settings: H 5996/08, 24 h
Enterococcus faecalis [31] = assay: Antibacterial activity against gram-positive Enterococcus faecalis J 14365/08 after 48 hrs by microdilution broth method; format: functional; settings: J 14365/08, 48 h
Nakaseomyces glabratus [32] = assay: Antifungal activity against Candida glabrata 20/I after 24 hrs by microdilution broth method; format: functional
Pichia kudriavzevii [33] = assay: Antifungal activity against Candida krusei E28 after 48 hrs by microdilution broth method; format: functional; settings: E28, 48 h
Candida tropicalis [34] = assay: Antifungal activity against Candida tropicalis 156 after 48 hrs by microdilution broth method; format: functional; settings: Candida tropicalis, 156, 48 h
Escherichia coli [35] = assay: Antibacterial activity against gram-negative Escherichia coli CCM 4517 after 24 hrs by microdilution broth method; format: functional; settings: CCM 4517, 24 h
Mycobacterium kansasii [36] = assay: Antimycobacterial activity against Mycobacterium kansasii 6509/96 after 14 days by micromethod; format: functional; settings: 6509/96, 336 h
Candida albicans = assay: Antifungal activity against Candida albicans ATCC 44859 after 24 to 48 hrs by microdilution broth method; format: functional, organism-based
[37] = Selectivity index, ratio of IC50 for human HepG2 cells to MIC for Mycobacterium kansasii 6509/96; format: toxicity; settings: read-out: Selectivity Index
[38] = tested on: Trichophyton mentagrophytes; assay: Antifungal activity against Trichophyton mentagrophytes 445 after 72 hrs by microdilution broth method; format: functional; settings: Trichophyton mentagrophytes, 445, 72 h
HepG2 [39] = assay: Cytostatic activity against human HepG2 cells incubated overnight followed by compound wash measured after 72 hrs by MTT assay; format: ADME, cell-based; settings: HepG2, 72 h
Lichtheimia corymbifera = assay: Antifungal activity against Absidia corymbifera 272 after 24 to 48 hrs by microdilution broth method; format: functional, organism-based
Mycobacterium avium [40] = assay: Antimycobacterial activity against Mycobacterium avium 330/88 after 21 days by micromethod; format: functional; settings: 330/88, 504 h
[41] = Selectivity index, ratio of IC50 for human HepG2 cells to MIC for Mycobacterium kansasii 6509/80; format: toxicity; settings: read-out: Selectivity Index
[42] = Selectivity index, ratio of IC50 for human HepG2 cells to MIC for Mycobacterium avium 330/88; format: toxicity; settings: read-out: Selectivity Index

O=C(N/N=C/c1cc(Cl)ccc1O)c1ccc(C(F)(F)F)cc1
> 50.5: selectivity ratio [9]
4.99: pIC50 (MONO-MAC-6 [11])
< 4.00: pIC50 [16] | pIC50 (HepG2 [28])
4.87: pIC50 (HepG2 [39])
0.98 µM: MIC (Nakaseomyces glabratus [18])
inactive: Activity (Klebsiella pneumoniae [4]) | Activity (Klebsiella pneumoniae [7]) | Activity (Pseudomonas aeruginosa) | Activity (Aspergillus fumigatus) | Activity (Trichosporon asahii) | Activity (Candida albicans) | Activity (Lichtheimia corymbifera)
> 125 µM: MIC (Pichia kudriavzevii [12]) | MIC (Candida tropicalis [14]) | MIC (Pichia kudriavzevii [33]) | MIC (Candida tropicalis [34])
62.5 µM: MIC (Mycobacterium kansasii [6]) | MIC [8] | MIC (Mycobacterium avium [19]) | MIC [20] | MIC (Mycobacterium kansasii [29])
125 µM: MIC (Mycobacterium kansasii [3]) | MIC (Mycobacterium kansasii [10]) | MIC (Mycobacterium kansasii [13]) | MIC (Mycobacterium kansasii [36]) | MIC (Mycobacterium avium [40])
5.24: pIC50 (MONO-MAC-6 [25])
3.9 µM: MIC [15] | MIC [24] | MIC [27] | MIC (Enterococcus faecalis [31])
> 25.6: selectivity ratio [17] | selectivity ratio [22]
250 µM: MIC (Escherichia coli [2]) | MIC (Escherichia coli [35])
≤ 0.49 µM: MIC (Nakaseomyces glabratus [32])
1.98 µM: MIC (Enterococcus faecalis [1]) | MIC (Staphylococcus aureus [5]) | MIC (Staphylococcus aureus [21]) | MIC (Staphylococcus aureus [26]) | MIC (Staphylococcus aureus [30]) | MIC [38]
> 1.6: selectivity ratio [23] | selectivity ratio [37] | selectivity ratio [41] | selectivity ratio [42]

O=C(N/N=C/c1ccc(Cl)cc1)c1ccc(C(F)(F)F)cc1
< 4.00: pIC50 (MONO-MAC-6 [11]) | pIC50 (MONO-MAC-6 [25]) | pIC50 (HepG2 [28]) | pIC50 (HepG2 [39])
5.15: pIC50 [16]
62.5 µM: MIC (Enterococcus faecalis [1]) | MIC (Staphylococcus aureus [5]) | MIC (Pichia kudriavzevii [12]) | MIC (Staphylococcus aureus [21]) | MIC (Staphylococcus aureus [26]) | MIC [27] | MIC (Staphylococcus aureus [30]) | MIC (Pichia kudriavzevii [33])
31.2 µM: MIC [24]
> 125 µM: MIC (Escherichia coli [2]) | MIC (Nakaseomyces glabratus [18]) | MIC (Mycobacterium avium [19]) | MIC (Enterococcus faecalis [31]) | MIC (Nakaseomyces glabratus [32]) | MIC (Escherichia coli [35]) | MIC (Mycobacterium avium [40])
125 µM: MIC (Candida tropicalis [14]) | MIC [15] | MIC (Candida tropicalis [34]) | MIC [38]
16 µM: MIC (Mycobacterium kansasii [3]) | MIC (Mycobacterium kansasii [6]) | MIC [8] | MIC (Mycobacterium kansasii [10]) | MIC (Mycobacterium kansasii [13]) | MIC [20] | MIC (Mycobacterium kansasii [29]) | MIC (Mycobacterium kansasii [36])
> 6.25: selectivity ratio [23] | selectivity ratio [37] | selectivity ratio [41] | selectivity ratio [42]
inactive: Activity (Klebsiella pneumoniae [4]) | Activity (Klebsiella pneumoniae [7]) | Activity (Pseudomonas aeruginosa) | Activity (Aspergillus fumigatus) | Activity (Trichosporon asahii) | Activity (Candida albicans) | Activity (Lichtheimia corymbifera)
> 1.6: selectivity ratio [9]

O=C(N/N=C/c1ccccc1O)c1ccc(C(F)(F)F)cc1
15.6 µM: MIC [15] | MIC (Nakaseomyces glabratus [18])
3.9 µM: MIC (Nakaseomyces glabratus [32])
inactive: Activity (Klebsiella pneumoniae [4]) | Activity (Klebsiella pneumoniae [7]) | Activity (Pseudomonas aeruginosa) | Activity (Aspergillus fumigatus) | Activity (Trichosporon asahii) | Activity (Candida albicans) | Activity (Lichtheimia corymbifera)
< 4.00: pIC50 [16] | pIC50 (HepG2 [28])
> 6.4: selectivity ratio [17] | selectivity ratio [22]
> 500 µM: MIC (Staphylococcus aureus [21]) | MIC (Staphylococcus aureus [26])
125 µM: MIC (Mycobacterium avium [19]) | MIC [20]
250 µM: MIC (Enterococcus faecalis [1]) | MIC (Mycobacterium kansasii [3]) | MIC (Mycobacterium kansasii [6]) | MIC [8] | MIC (Mycobacterium kansasii [10]) | MIC (Mycobacterium kansasii [13]) | MIC [24] | MIC (Mycobacterium kansasii [29]) | MIC (Enterococcus faecalis [31]) | MIC (Mycobacterium kansasii [36]) | MIC (Mycobacterium avium [40])
5.77: pIC50 (MONO-MAC-6 [11])
5.21: pIC50 (HepG2 [39])
500 µM: MIC (Escherichia coli [2]) | MIC (Staphylococcus aureus [5]) | MIC [27] | MIC (Staphylococcus aureus [30]) | MIC (Escherichia coli [35])
> 125 µM: MIC (Pichia kudriavzevii [12]) | MIC (Candida tropicalis [14]) | MIC (Pichia kudriavzevii [33]) | MIC (Candida tropicalis [34])
7.81 µM: MIC [38]
5.64: pIC50 (MONO-MAC-6 [25])
